Results: patent US20250213649A1, “PEPTIDE HAVING ANTI-INFLAMMATORY AND ANTI-FIBROTIC ACTIVITIES AND USE THEREOF” (CAREGEN CO., LTD., priority 2022, published 2025)

Legend:
[1] = test system: A549 cells; test: Inhibition of LPS-induced inflammatory cytokine gene expression, RT-PCR, A549 cells; type: cell-based, human; details: 5 μg/ml LPS, peptide 10, 50, 100, 500 μM, 3 hours, RT-PCR (FIG. 2)
Description: A549 cells (human alveolar basal epithelial cells) were seeded at 3×10^5 cells/well in a 6-well plate and used in the experiment. After culturing for 1 day with a culture medium containing 10% FBS, the culture medium was replaced with a culture medium without containing FBS to induce starvation for 4 hours. A normal group without being treated with any substances, a group treated with 5 μg/ml of LPS (Sigma Aldrich) (negative control group), groups treated with 5 μg/ml of LPS and the peptide of Production Example 1 (10, 50, 100, 500 μM), and a group treated with 5 μg/ml of LPS and 10 μM of Dexamethasone (DEX) (positive control group) were treated with active substances and drugs respectively, and then RNA was extracted after 3 hours to carry out RT-PCR. RNA was extracted from the A549 cells in the above-described treatment group using an easy-BLUE™ Total RNA extraction kit (Qiagen, Germany). The extracted RNA was converted into cDNA with RT-PCR premix (iNtRON Biotechnology, Seongnam, Korea). After preparing a reaction mixture with PCR premix (iNtRON Biotechnology, Seongnam, Korea) and primers for each gene, PCR was carried out using a PCR machine (Eppendorf, Germany). Next, the mRNA expression pattern was determined by agarose gel electrophoresis. The base sequences of the primers used in the experiment are listed in [Table 2] below.

[2] = test system: A549 cells; test: Western blotting of LPS-induced inflammatory cytokine/signaling proteins, A549 cells; type: cell-based, human; details: LPS 5 μg/ml, peptide 10, 50, 100, 500 μM, 24 hours, Western blot (FIG. 4a, 4b)
Description: A549 cells (human alveolar basal epithelial cells) were seeded at 3×10^5 cells/well in a 6-well plate and used in the experiment. After culturing for 1 day with a culture medium containing 10% FBS, the culture medium was replaced with a culture medium without containing FBS to induce starvation for 4 hours. Cells of a normal group without being treated with any substances, a group treated with LPS (5 μg/ml) (Sigma Aldrich) (negative control group), groups treated with LPS (5 μg/ml) and the peptide of Production Example 1 (10, 50, 100, 500 μM), and a group treated with LPS (5 μg/ml) and 10 μM of Dexamethasone (DEX) (positive control group) were treated with active substances and drugs respectively and then cultured for 24 hours. The cultured cells of each treatment group and control group were lysed by adding a lysis buffer, and then centrifugation was carried out at 4° C. at 12,000 rpm for 30 minutes to obtain proteins, which were subsequently quantified using a BCA Protein Assay kit (Sigma). The proteins were subjected to SDS-PAGE (sodium dodecyl sulfate-polyacrylamide gel electrophoresis) and then subjected to electrotransfer to a membrane. The membrane to which the proteins were attached was treated with 5% skim milk for blocking and then subjected to a reaction with a primary antibody overnight at 4° C. After washing with PBS-T, the membrane was subjected to a reaction with a secondary antibody at room temperature for 1 hour, washed again with PBS-T, and then visualized by a Western detection reagent (Elpis Biotech, Daejeon, Korea) using Gel Doc (Bio-Rad, Hercules, CA, USA). The antibodies used in the experiment are as follows. An Anti-IL-1β antibody: (Cell signaling technology (CST), USA), an anti-IL-6 antibody: (Santa Cruz Biotechnology, USA), an anti-COX2 antibody: (Santa Cruz Biotechnology, USA), an anti-Phospho-PI3K antibody: (Cell signaling technology (CST), USA), an anti-Phospho-AKT antibody: (Cell signaling technology (CST), USA), an anti-Phospho-ERK antibody: (Cell signaling technology (CST), USA), and an anti-β-Actin antibody: (Santa Cruz Biotechnology, USA).

[3] = test system: BALB/c mice; test: BLM-induced pulmonary fibrosis model, cell counts in bronchoalveolar lavage fluid; type: in vivo; details: BALB/c male mice, peptide 1 mg/mouse intranasal three times a week for 14 days, 21st day (FIG. 13b)
Description: As shown in [Table 6] below, 8-week-old BALB/c male mice were divided into 4 groups of 5 mice each. On the 1st day, a Bleomycin solution ([…]/50 μl/mouse) was administered through the oropharynx to carry out one time of induction with BLM. Then, from the 7th day, the peptide of Production Example 1 (1 mg/mouse) was administered intranasally three times a week for 14 days, and Pirfeninone (2 mg/mouse) for a positive control group was administered orally three times a week for 14 days. On the 21st day of the induction with BLM, mice were sacrificed to obtain the bronchoalveolar lavage fluid and the lung tissue, which were used in the next analysis.
The mouse subjected to the animal experiment was anesthetized, and then the treatment area was disinfected with 70% ethanol. […] The separated cells were resuspended in 0.5 ml of PBS, subsequently diluted with trypan blue solution at a 1:1 ratio, and then the total number of cells was counted using a hematocytometer. […] After staining, cells were observed and counted through a microscope, and then the number of immune cells with respect to the total number of cells was calculated to show the results as a graph. […]

KYLLVHRPYYRR [peptide of Production Example 1]
gene expression of COX-2 [1]: decreases in a concentration-dependent manner | gene expression of IL-1β [1]: decreases in a concentration-dependent manner | gene expression of IL-6 [1]: decreases in a concentration-dependent manner | gene expression of IL-8 [1]: decreases in a concentration-dependent manner | gene expression of TNF-α [1]: decreases in a concentration-dependent manner | expression of COX2 (protein) [2]: decreased the expression levels of proteins in a concentration-dependent manner | expression of IL-1β (protein) [2]: decreased the expression levels of proteins in a concentration-dependent manner | expression of IL-6 (protein) [2]: decreased the expression levels of proteins in a concentration-dependent manner | expression of Phospho-AKT [2]: decreased the expression levels of proteins in a concentration-dependent manner | expression of Phospho-ERK [2]: decreased the expression levels of proteins in a concentration-dependent manner | expression of Phospho-PI3K [2]: decreased the expression levels of proteins in a concentration-dependent manner | number of lymphocytes in bronchoalveolar lavage fluid [3]: decreased the increased number of macrophages and the increased number of lymphocytes | number of macrophages in bronchoalveolar lavage fluid [3]: decreased the increased number of macrophages
